In data set [1] the test system is NCI 60 cancer cell lines. As to the kind of experiment: NCI-60 single-dose antiproliferative assay, mean over panel. In kind it is cell-based. The settings on record: Homo sapiens; 10 μM single dose; mean over all NCI panel cell lines; read-out: MEAN % Growth inhibition. The protocol:
From the newly synthesized compounds, eleven compounds (4c, 4d, 5, 9a, 9b, 11a, 11b, 13b, 13c, 15b, and 15c) were selected by the National Cancer Institute (NCI) Developmental Therapeutics Program (DTP), Bethesda, Maryland, USA for the in vitro anti-proliferative activity evaluation. The selected compounds were examined at 10 μM dose against the NCI 60-cell line panel. This panel consists of nine cell line groups of leukemia, non-small cell lung carcinoma (NSCLC), melanoma, colon, CNS, ovarian, renal, prostate, and breast cancers. The results are reported as mean-graph of the percent growth relative to control and presented as percentage growth inhibition (GI%), furthermore, mean GI% of each compound over all panel cell lines was calculated (Table 1; Additional file 1; S3: In vitro biological activity).
From the newly synthesized compounds, eleven compounds were selected by the National Cancer Institute (NCI) Developmental Therapeutics Program (DTP), Bethesda, Maryland, USA for the in vitro anti-proliferative activity evaluation (For further details see supplementary materials).
NCI In-vitro Cancer Screening is a two-phase procedure that starts with the assessment of all compounds against the sixty NCI cell line panel depicting leukemia, NSCLC, CNS cancer, melanoma, prostate cancer, breast cancer, renal cancer, colon cancer and ovarian cancer cell lines at a single point of 10μM. The output from the single-dose screen is reportable as a mean graph.
The human tumor cell lines of the cancer screening panel were grown in RPMI 1640 medium containing 5% fetal bovine serum and 2 mM L-glutamine. For a typical screening experiment, cells were inoculated into 96 well microtiter plates in […] at plating densities ranging from 5000 to 40,000 cells/well depending on the doubling time of individual cell lines. After cell inoculation, the microtiter plates were incubated at 37 °C, 5% CO2, 95% air and 100% relative humidity for 24 h prior to addition of experimental drugs. After 24 h, two plates of each cell line were fixed in situ with trichloroacetic acid (TCA), to represent a measurement of the cell population for each cell line at the time of drug addition (Tz). Experimental drugs were solubilized in dimethyl sulfoxide at 400-fold the desired final maximum test concentration and stored frozen prior to use. At the time of drug addition, an aliquot of frozen concentrate was thawed and diluted to twice the desired final maximum test concentration with complete medium containing 50 µg/ml gentamicin. Aliquot of 100 µl of the drug dilution was added to the appropriate microtiter wells already containing 100 µl of medium, resulting in the required final drug concentration (10 µM). Triplicate wells were prepared for each individual dose. Following drug addition, the plates were incubated for an additional 48 h at 37 °C, 5% CO2, 95% air, and 100% relative humidity. For adherent cells, the assay was terminated by the addition of cold TCA. Cells were fixed in situ by the gentle addition of 50 µl of cold 50% (w/v) TCA (final concentration, 10% TCA) and incubated for 60 min at 4 °C. The supernatant was discarded, and the plates were washed five times with tap water and air dried. Sulforhodamine B (SRB) solution (100 µl) at 0.4% (w/v) in 1% acetic acid was added to each well, and plates were incubated for 10 min at room temperature. After staining, unbound dye was removed by washing five times with 1% acetic acid and the plates were air dried. Bound stain was subsequently solubilized with 10 mM trizma base, and the absorbance was read on an automated plate reader at a wavelength of 515 nm. For suspension cells, the methodology was the same except that the assay was terminated by fixing settled cells at the bottom of the wells by gently adding 50 µl of 80% TCA (final concentration, 16% TCA). […]

Data set [2] deals with hCA XII (Homo sapiens, UniProt O43570). The data set can be described thus: Stopped flow CO2 hydrase assay.
Data set [3] has as its target hCA I (Homo sapiens, UniProt P00915). As to the kind of experiment: Stopped flow CO2 hydrase assay.
The subject of data set [4] is ACHN. The data set can be described thus: NCI-60 single-dose antiproliferative assay (SRB). Conditions: Homo sapiens, 10 μM single dose, Renal cancer, read-out: Cell Growth inhibition Percent. The class given is cell-based. The essentials:
(§1)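 Cells grown in RPMI 1640 with 5% FBS and 2 mM L-glutamine were plated, left 24 h at 37 °C, then exposed to compound at a single 10 µM final concentration for 48 h. Adherent cells were TCA-fixed, SRB-stained and read at 515 nm; growth was expressed relative to time-zero and untreated controls.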

The test system of data set [5] is OVCAR-4. As to the kind of experiment: NCI-60 single-dose antiproliferative assay (SRB). In kind it is cell-based. The settings on record: Homo sapiens; 10 μM single dose; OVCAR-4, Ovarian Cancer; read-out: Cell Growth inhibition Percent. The essentials: as §1
In data set [6] the test system is CAKI-1. As to the kind of experiment: NCI-60 single-dose antiproliferative assay (SRB). The class given is cell-based. Conditions: Homo sapiens; 10 μM single dose; CAKI-1, Renal cancer; read-out: Cell Growth inhibition Percent. Put shortly:
as §1

Data set [7] concerns SNB-75. The data set can be described thus: NCI-60 single-dose antiproliferative assay (SRB). In kind it is cell-based. Conditions: Homo sapiens; 10 μM single dose; SNB-75, CNS cancer; read-out: Cell Growth inhibition Percent. The essentials: as §1
Data set [8] relates to SK-MEL-5. As to the kind of experiment: NCI-60 single-dose antiproliferative assay (SRB). The class given is cell-based. The settings on record: Homo sapiens; 10 μM single dose; SK-MEL-5, Melanoma; read-out: Cell Growth inhibition Percent. Put shortly: as §1
Data set [9] concerns HOP-92. The data set can be described thus: NCI-60 single-dose antiproliferative assay (SRB). In kind it is cell-based. Conditions: Homo sapiens; 10 μM single dose; HOP-92, Non-small cell lung cancer; read-out: Cell Growth inhibition Percent. Put shortly: (§2)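 Single dose 10 µM (final), 48 h, 37 °C, 5% CO2; RPMI 1640/5% FBS. Endpoint: TCA fixation, 0.4% SRB, absorbance 515 nm. % growth = (Ti–Tz)/(C–Tz)×100, or (Ti–Tz)/Tz×100 when Ti < Tz; reported as GI%.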

Data set [10] concerns LOX IMVI. As to the kind of experiment: NCI-60 single-dose antiproliferative assay (SRB). The class given is cell-based. The settings on record: Homo sapiens, 10 μM single dose, Melanoma, read-out: Cell Growth inhibition Percent. Put shortly:
as §1

Data set [11] relates to MDA-MB-231/ATCC. As to the kind of experiment: NCI-60 single-dose antiproliferative assay (SRB). The class given is cell-based. Conditions: Homo sapiens, 10 μM single dose, Breast cancer, read-out: Cell Growth inhibition Percent. Put shortly:
as §1

Data set [12] has as its system PC-3. As to the kind of experiment: NCI-60 single-dose antiproliferative assay (SRB). In kind it is cell-based. Conditions: Homo sapiens; 10 μM single dose; PC-3, Prostate cancer; read-out: Cell Growth inhibition Percent. The essentials:
as §1

The test system of data set [13] is KM12. The data set can be described thus: NCI-60 single-dose antiproliferative assay (SRB). In kind it is cell-based. The settings on record: Homo sapiens; 10 μM single dose; KM12, Colon cancer; read-out: Cell Growth inhibition Percent. The essentials:
as §2

Data set [14] has as its system NCI-H23. The data set can be described thus: NCI-60 single-dose antiproliferative assay (SRB). The class given is cell-based. Conditions: Homo sapiens; 10 μM single dose; NCI-H23, Non-small cell lung cancer; read-out: Cell Growth inhibition Percent. The essentials:
as §2

Data set [15] has as its system NCI-H226. As to the kind of experiment: NCI-60 single-dose antiproliferative assay (SRB). The class given is cell-based. Conditions: Homo sapiens; 10 μM single dose; NCI-H226, Non-small cell lung cancer; read-out: Cell Growth inhibition Percent. Put shortly:
as §1

For data set [16], the system named is IGROV1. The data set can be described thus: NCI-60 single-dose antiproliferative assay (SRB). The class given is cell-based. The settings on record: Homo sapiens, IGROV-1; 10 μM single dose; IGROV1, Ovarian Cancer; read-out: Cell Growth inhibition Percent. The essentials:
as §1

For data set [17], the system named is M14. As to the kind of experiment: NCI-60 single-dose antiproliferative assay (SRB). In kind it is cell-based. Conditions: Homo sapiens; 10 μM single dose; M14, Melanoma; read-out: Cell Growth inhibition Percent. The essentials: as §1

Chain of hCA I (P00915 whole entry): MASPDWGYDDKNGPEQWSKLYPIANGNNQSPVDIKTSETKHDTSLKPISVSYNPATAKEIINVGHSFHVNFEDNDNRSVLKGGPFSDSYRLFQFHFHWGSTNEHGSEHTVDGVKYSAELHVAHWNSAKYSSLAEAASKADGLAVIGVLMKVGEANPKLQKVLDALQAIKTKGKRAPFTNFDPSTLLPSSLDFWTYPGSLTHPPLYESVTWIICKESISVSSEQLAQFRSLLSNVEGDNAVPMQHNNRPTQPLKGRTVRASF
Chain of hCA XII (O43570 25-354): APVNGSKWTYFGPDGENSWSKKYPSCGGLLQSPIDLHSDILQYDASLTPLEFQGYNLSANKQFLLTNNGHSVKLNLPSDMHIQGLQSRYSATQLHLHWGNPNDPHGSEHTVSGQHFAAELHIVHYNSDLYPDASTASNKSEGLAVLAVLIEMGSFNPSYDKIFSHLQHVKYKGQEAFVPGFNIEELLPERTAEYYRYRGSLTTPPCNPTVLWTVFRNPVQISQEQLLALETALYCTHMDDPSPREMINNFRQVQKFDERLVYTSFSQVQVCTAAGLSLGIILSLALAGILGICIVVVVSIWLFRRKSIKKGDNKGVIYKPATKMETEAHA

In the case of `O=C1Nc2ccccc2C1=CNc1ccc(C(=O)Nc2ccc(S(=O)(=O)Nc3ncccn3)cc2)cc1` [Compound 9b, 4-{[(2-Oxoindolin-3-ylidene)methyl]amino}-N-{4-[N-(pyrimidin-2-yl)sulfamoyl]phenyl}benzamide], the melting point (usually the temperature of the solid-liquid transition) is over 300 °C. Further, in [1], the inhibition (usually the percentage by which the read-out fell short of the control) at 10 µM came to 2.55%. Further, the Ki (as a rule, a dissociation constant, usually derived from enzyme kinetics or from competition with a known ligand) in data set [2] was over 10 µM. Also, in [3], the Ki is over 10 µM. Besides, the inhibition at 10 µM in data set [4] amounted to 10.5%. The inhibition at 10 µM in data set [5] stood at 7.67%. Moreover, the inhibition at 10 µM in data set [6] was 27.6%. The inhibition at 10 µM in [7] worked out at 31.3%. Also, in [8], the inhibition at 10 µM was found to be 6.95%. The inhibition at 10 µM in data set [9] is 4.65%. Besides, in data set [10], the inhibition at 10 µM worked out at 7.22%. Besides, the inhibition at 10 µM in data set [11] came out at 3.83%. Further, in [12], the inhibition at 10 µM is 7.1%. Moreover, the inhibition at 10 µM in data set [13] turned out to be 43.9%. Also, the inhibition at 10 µM in [14] turned out to be 9.28%. Besides, in data set [15], the inhibition at 10 µM came to 12.2%. The inhibition at 10 µM in data set [16] was determined as 21.3%. Also, the inhibition at 10 µM in data set [17] worked out at 1.44%.
Turning to `O=C1Nc2ccccc2C1=CNc1ccc(C(=O)O)cc1` [Compound 4c, 4-{[(2-Oxoindolin-3-ylidene)methyl]amino}benzoic acid], the melting point was over 300 °C. Besides, the inhibition at 10 µM in data set [1] was 3.71%. The inhibition constant (Ki) in data set [2] was over 10 µM. In data set [3], this compound returned a Ki of 6.32 µM. In addition, the inhibition at 10 µM in data set [4] is 1.58%. In addition, the inhibition at 10 µM in data set [5] came out at 13.3%. Also, the inhibition at 10 µM in data set [6] is 29.1%. For the same compound, the inhibition at 10 µM in data set [7] was determined as 44.3%. Moreover, in [8], the inhibition at 10 µM was found to be 1.74%. Also, the inhibition at 10 µM in [9] was determined as 16.4%. Moreover, the inhibition at 10 µM in data set [10] was found to be 6.93%. Also, the inhibition at 10 µM in data set [11] amounted to 4.54%. In addition, in [12], the inhibition at 10 µM was 7.71%. Also, the inhibition at 10 µM in data set [13] came to 49.2%. In data set [14], the inhibition at 10 µM stood at 7.13%. Moreover, the inhibition at 10 µM in data set [15] stood at 11.4%. The inhibition at 10 µM in [16] amounted to 24.1%. Further, the inhibition at 10 µM in data set [17] was determined as 2.15%.
